Source: the supplement of paper PMC11061612

Legend:
Assay in all cases: combination Emax (second highest fraction inhibited in the dose matrix, 72 h); higher = more inhibition; extreme values may be limits of the assay
A704 (Kidney Carcinoma) = system: A704 (Kidney Carcinoma)
Method in brief: (§1)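 After 24 hours at 37°C and 5% CO2 in 1536-well plates, cells in DMEM/F12 or RPMI plus 10% FBS received two-drug dose matrices for 72 hours. Viability came from CellTiter-Glo 2.0 luminescence and was scaled as inhibition, anchored at 0 by vehicle wells and at 1 by blank wells. Combination Emax is taken as the second-highest inhibition in the matrix, and Bliss excess as the observed combination effect less EA + EB − EA·EB, with EA and EB the single-agent effects.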

[1] = system: ASH-3 (Thyroid Gland Carcinoma)
Method in brief: as §1

BT-20 (Breast Carcinoma) = system: BT-20 (Breast Carcinoma)
Method in brief: as §1

[2] = system: BV-173 (Chronic Myelogenous Leukemia)
Method in brief: as §1

[3] = system: EBC-1 (Squamous Cell Lung Carcinoma)
Method in brief: as §1

GI-1 (Glioblastoma) = system: GI-1 (Glioblastoma)
Method in brief: as §1

[4] = system: H-EMC-SS (Chondrosarcoma)
Method in brief: as §1

[5] = system: HSC-2 (Oral Cavity Carcinoma)
Method in brief: as §1

[6] = system: KINGS-1 (Low Grade Glioma)
Method in brief: as §1

[7] = system: KLE (Endometrial Carcinoma)
Method in brief: as §1

[8] = system: KP-2 (Pancreatic Carcinoma)
Method in brief: as §1

[9] = system: KU-19-19 (Bladder Carcinoma)
Method in brief: as §1

[10] = system: NCI-H2347 (Lung Adenocarcinoma)
Method in brief: as §1

[11] = system: NCI-N87 (Gastric Carcinoma)
Method in brief: as §1

NH-12 (Neuroblastoma) = system: NH-12 (Neuroblastoma)
Method in brief: as §1

[12] = system: PF-382 (T-Lymphoblastic Leukemia)
Method in brief: as §1

RPMI-7951 (Melanoma) = system: RPMI-7951 (Melanoma)
Method in brief: as §1

[13] = system: SCC-3 (B-Cell Non-Hodgkin's Lymphoma)
Method in brief: as §1

[14] = system: SCC-9 (Oral Cavity Carcinoma)
Method in brief: as §1

[15] = system: SNU-C1 (Colorectal Carcinoma)
Method in brief: as §1

| Compound | combination Emax (A704 (Kidney Carcinoma)) | combination Emax [1] | combination Emax (BT-20 (Breast Carcinoma)) | combination Emax [2] | combination Emax [3] | combination Emax (GI-1 (Glioblastoma)) | combination Emax [4] | combination Emax [5] | combination Emax [6] | combination Emax [7] | combination Emax [8] | combination Emax [9] | combination Emax [10] | combination Emax [11] | combination Emax (NH-12 (Neuroblastoma)) | combination Emax [12] | combination Emax (RPMI-7951 (Melanoma)) | combination Emax [13] | combination Emax [14] | combination Emax [15] |
| --- | --- | --- | --- | --- | --- | --- | --- | --- | --- | --- | --- | --- | --- | --- | --- | --- | --- | --- | --- | --- |
| CS(=O)(=O)CCNCc1ccc(-c2ccc3ncnc(Nc4ccc(OCc5cccc(F)c5)c(Cl)c4)c3c2)o1 [Lapatinib] + C[C@@H](Oc1cc(-c2cnn(C3CCNCC3)c2)cnc1N)c1c(Cl)ccc(F)c1Cl [Crizotinib] (first compound max 10 µM, 7x7, partner max 10 µM) | 0.905 | 0.908 | 0.652 | 0.94 | 1 | 0.909 | 0.576 | 0.998 | 0.921 | 0.51 | 0.788 | 0.918 | 0.301 | 0.978 | 0.873 | 0.978 | 0.975 | 0.999 | 0.964 | 0.675 |
| CCN(CCO)CCCOc1ccc2c(Nc3cc(CC(=O)Nc4cccc(F)c4)[nH]n3)ncnc2c1 [AZD2811] + C=CCn1c(=O)c2cnc(Nc3ccc(N4CCN(C)CC4)cc3)nc2n1-c1cccc(C(C)(C)O)n1 [AZD1775] (first compound max 1 µM, partner max 1 µM) | 0.392 | 0.103 | 0.455 | 0.987 | 0.24 | 0.947 | 0.257 | 0.43 | 0.276 | 0.564 | 0.206 | 0.765 | 0.32 | 0.66 | 0.877 | 0.978 | 0.697 | 0.923 | 0.172 | 0.151 |
| COc1nnc2ccc(N3CCC(c4ccc(OCCN5CCN(C)C(=O)[C@H]5C)cc4)CC3)nn12 [AZD5153] + CC1(C)CCC(CN2CCN(c3ccc(C(=O)NS(=O)(=O)c4ccc(NCC5CCOCC5)c([N+](=O)[O-])c4)c(Oc4cnc5[nH]ccc5c4)c3)CC2)=C(c2ccc(Cl)cc2)C1 [Venetoclax] (first compound max 1 µM, 7x7, partner max 1 µM) | 0.585 | 0.718 | 0.138 | 0.921 | 0.802 | 0.763 | 0.27 | 0.662 | 0.159 | 0.609 | 0.354 | 0.63 | 0.331 | 0.592 | 0.737 | 0.871 | 0.559 | 0.887 | 0.407 | 0.46 |
